In assay [1] the test system is microtubule network in isolated FDB myofibers. The assay is described as follows: Fluorescence labeling and quantification of α-tubulin (microtubule network density). As to conditions: Angiotensin II treatment over 24 hrs. In kind it is cell-based, mouse. Here is the method: Isolated intact FBDs were plated on ECM gel from Engelbreth-Holm-Swarm murine sarcoma coated imaging dishes (MatTek, Ashland, Mass.). Following treatment, plated myofibers were fixed with 2% paraformaldehyde, permeabilized with 0.1% Triton X-100 in phosphate buffered saline (PBS), blocked in 8% bovine serum albumin in PBS, and then labeled overnight with an antibody to α-tubulin conjugated to Alexa Fluor 488 (anti-mouse; Invitrogen, Carlsbad, Calif., USA). Digital images were obtained with a BioRad Radiance fluorescent laser scanning confocal attached to an Olympus IX-70 inverted microscope. Laser intensity was adjusted on a sample-to-sample basis to maximize amount of microtubules that are visualized. A 35-image Z-stack was taken at 0.5 μm interval and the most representative 9 frames were stacked together using ImageJ (NIH, USA) to form a composite image. Quantification was performed on the binary image representation of the 9-image stack. Background was subtracted uniformly and image was transformed into a binary using ImageJ unbiased binary function. A uniform region of interest was selected and mean intensity measured.

In the next assay the test system is C2C12 myotubes. The assay is described as follows: Microtubule subunit content in myotubes. Format: cell-based.

On to “Angiotensin II: angiotensin II, increases microtubule density”, for which the entries for the “microtubule density in isolated FDB myofibers” value in assay [1] and in assay [1] (listed as angiotensin II) were “increases microtubule density” and “densified the microtubule network”, respectively. For the same substance, the microtubule subunit content result in the assay with C2C12 myotubes is “increased microtubule subunit content”.

Values taken from US20140256644A1, “Treatment of Muscular Conditions and Muscular Dystrophies” (priority 2011, published 2014).
